Target: WRN helicase (Homo sapiens, UniProt Q14191)
Assay: WRN helicase hydrolysis/unwinding of double-stranded DNA (fluorescence)
Format: biochemical
How it was run: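 Human WRN helicase preincubated 30 min in the dark with compound (top final concentration 10 μM, 4-fold dilutions). Reaction started with 19-bp double-stranded DNA labelled 3′-TAMRA/5′-BHQ2, run 60 min at room temperature; IC50 from fluorescence change (Ex530/Em590) versus DMSO blank.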

Sequence of WRN helicase (Q14191 whole entry): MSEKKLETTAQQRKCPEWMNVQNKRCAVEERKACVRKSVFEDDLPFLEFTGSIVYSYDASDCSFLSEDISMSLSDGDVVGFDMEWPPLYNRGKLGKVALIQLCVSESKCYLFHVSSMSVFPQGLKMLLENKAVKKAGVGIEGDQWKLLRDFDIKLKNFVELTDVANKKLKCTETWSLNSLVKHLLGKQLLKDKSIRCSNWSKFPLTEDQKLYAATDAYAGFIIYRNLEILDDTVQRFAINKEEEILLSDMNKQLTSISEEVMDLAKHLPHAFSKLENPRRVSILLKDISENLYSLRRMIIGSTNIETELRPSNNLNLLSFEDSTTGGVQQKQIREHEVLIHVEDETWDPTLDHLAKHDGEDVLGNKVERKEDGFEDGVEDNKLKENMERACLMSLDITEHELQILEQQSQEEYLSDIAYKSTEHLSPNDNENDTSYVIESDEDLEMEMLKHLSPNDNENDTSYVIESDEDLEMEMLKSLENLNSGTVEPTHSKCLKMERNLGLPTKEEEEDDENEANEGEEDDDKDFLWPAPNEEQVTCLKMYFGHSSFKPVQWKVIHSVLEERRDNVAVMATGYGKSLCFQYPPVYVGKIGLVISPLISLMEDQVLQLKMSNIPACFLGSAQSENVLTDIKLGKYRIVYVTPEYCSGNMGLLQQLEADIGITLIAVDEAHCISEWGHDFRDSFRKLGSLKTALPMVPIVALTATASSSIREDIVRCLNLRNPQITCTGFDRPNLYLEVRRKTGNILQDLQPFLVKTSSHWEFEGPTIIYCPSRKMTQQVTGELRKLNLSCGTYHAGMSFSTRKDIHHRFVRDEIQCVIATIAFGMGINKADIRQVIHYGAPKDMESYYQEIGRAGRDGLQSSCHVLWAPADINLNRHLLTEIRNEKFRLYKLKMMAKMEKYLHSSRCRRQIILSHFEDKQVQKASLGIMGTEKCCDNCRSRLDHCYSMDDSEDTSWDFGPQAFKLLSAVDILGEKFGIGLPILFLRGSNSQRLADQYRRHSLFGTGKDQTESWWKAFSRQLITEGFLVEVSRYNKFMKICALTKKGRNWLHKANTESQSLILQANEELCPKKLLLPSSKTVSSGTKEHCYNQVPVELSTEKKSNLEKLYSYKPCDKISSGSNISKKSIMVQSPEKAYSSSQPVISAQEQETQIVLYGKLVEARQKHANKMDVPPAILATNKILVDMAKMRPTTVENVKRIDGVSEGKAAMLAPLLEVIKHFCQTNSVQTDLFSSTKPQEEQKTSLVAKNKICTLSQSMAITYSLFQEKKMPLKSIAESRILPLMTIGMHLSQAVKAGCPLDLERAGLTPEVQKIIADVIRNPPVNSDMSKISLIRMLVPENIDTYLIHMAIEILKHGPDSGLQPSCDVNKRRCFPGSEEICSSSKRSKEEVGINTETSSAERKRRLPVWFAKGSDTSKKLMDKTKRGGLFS

- IC50: 1.4 nM
SMILES: CCc1c(N2CCN(C(=O)c3ncnc(C)c3O)CC2)c(=O)n2nc(C3=CCOCC3)nc2n1CC(=O)Nc1ccc(C(F)(F)F)c2ccoc12 [Compound H22]

Source: US20260216197A1, “WRN HELICASE INHIBITOR” (SUZHOU PUHE BIOPHARMA CO., LTD., priority 2022, published 2026)
